Source: US12486270B2, “Receptor tyrosine kinase inhibitors for treatment of protein kinase modulation-responsive disease or disorder” (THE UNITED STATES OF AMERICA, as represented by the …, priority 2019, dated 2025)

Columns and labels:
[1] = system: colorectal carcinoma cell lines; experiment: Proliferation of 10 colorectal carcinoma cell lines; type: cell-based, human; conditions: 1 μM, all colorectal carcinoma cell lines
EphA2 [2] = molecular target: T1, EphA2 (Homo sapiens (Human), UniProt P29317); experiment: Binding affinity to EphA2 by microscale thermophoresis (MST); conditions: for Kd: towards EphA2
T1 sequence (P29317 24-976): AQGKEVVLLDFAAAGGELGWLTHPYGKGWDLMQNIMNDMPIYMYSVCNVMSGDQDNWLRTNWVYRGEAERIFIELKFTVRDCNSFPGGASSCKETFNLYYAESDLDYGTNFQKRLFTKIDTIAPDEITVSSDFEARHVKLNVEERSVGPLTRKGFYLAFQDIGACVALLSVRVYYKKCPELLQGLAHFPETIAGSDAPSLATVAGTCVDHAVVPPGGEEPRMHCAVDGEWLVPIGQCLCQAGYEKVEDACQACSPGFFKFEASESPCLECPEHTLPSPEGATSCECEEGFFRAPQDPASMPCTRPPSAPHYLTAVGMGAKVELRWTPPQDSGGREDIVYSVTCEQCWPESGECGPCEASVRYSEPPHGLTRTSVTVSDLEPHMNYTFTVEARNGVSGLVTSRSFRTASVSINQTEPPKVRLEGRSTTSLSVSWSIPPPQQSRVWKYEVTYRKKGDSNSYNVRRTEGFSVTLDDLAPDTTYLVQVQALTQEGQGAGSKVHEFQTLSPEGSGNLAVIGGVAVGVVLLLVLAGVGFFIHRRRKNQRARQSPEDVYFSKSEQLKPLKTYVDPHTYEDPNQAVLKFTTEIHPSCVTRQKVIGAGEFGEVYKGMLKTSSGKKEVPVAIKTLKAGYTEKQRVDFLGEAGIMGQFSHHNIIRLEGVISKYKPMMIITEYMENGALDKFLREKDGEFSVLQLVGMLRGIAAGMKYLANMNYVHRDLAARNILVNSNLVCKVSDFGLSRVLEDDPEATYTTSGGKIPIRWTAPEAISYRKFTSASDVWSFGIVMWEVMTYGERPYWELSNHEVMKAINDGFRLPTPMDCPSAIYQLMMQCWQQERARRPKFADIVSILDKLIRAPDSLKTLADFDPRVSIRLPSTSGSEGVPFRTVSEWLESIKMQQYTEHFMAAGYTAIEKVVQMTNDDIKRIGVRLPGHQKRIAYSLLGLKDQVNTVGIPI
From the text: The binding affinities of the compounds to EphA2 were investigated by microscale thermophoresis (MST) (M. Jerabek-Willemsen et al., J. Mol. Struct. 2014, 1077, 101-113).

LC3 = LC3 autophagic puncta imaging in HT-29 cells transduced with fluorescent LC3; type: cell-based, human
Protocol: Autophagy-related cell death was assessed by evaluation of LC3 autophagy-associated protein. The cells were first induced to stably express fluorescent pK (pHluorin-mKate2) LC3 by lentiviral infection. The cells were subsequently grown on glass coverslips (ThermoFisher, 12-545-81) until 50% confluent. Coverslips were washed with PBS −/−, fixed with 4% PEA for 15 minutes at room temperature, washed with TBS, mounted with DAPI-containing mounting media, allowed to harden overnight and sealed. Coverslips were imaged on a confocal Zeiss 780 microscope. Images were analyzed by CellProfiler using automatic thresholding to calculate the number of nuclei (DAPI staining) and the number of puncta. The results are expressed as the percent cells with two or more puncta. […] Monolayer cell confluency overtime was measured by IncuCyte HD (Essen BioSciences) imaging.
Immunostaining and microscopy. […] Maximum intensity projections (Zen Software 2.3 Blue Edition; Carl Zeiss) were used for quantification using CellProfiler software (Kamentsky et al., Bioinformatics 2011, 27:1179-1180) with automatic thresholding. Integrated intensity of CD31 was measured. The percent Ki-67 positive cells was measured by calculating the number of Ki-67 positive cells/total number DAPI^+ nuclei. The area of cleaved Caspase-3 positive area/total area was calculated by CellProfiler with automatic threshold. […]

LC3B [3] = experiment: LC3B autophagy marker by immunoblotting in HT-29 cells; type: cell-based, human; conditions: for LC3B accumulation in cells treated with 1 μM NVP or NVP-Iso: spautin 5 μM, 3-MA 5 mM, chloroquine 10 μM
Protocol: Western blotting. Protein lysates were separated by SDS-PAGE and then transferred to a nitrocellulose membrane. After blocking, membranes were incubated overnight with antibodies to LC3 (rabbit Monoclonal antibody, Cell Signaling).

LC3B [4] = experiment: LC3B accumulation in SW620 cells; type: cell-based, human; conditions: pre-treatment 4 hours; spautin 5 μM, 3-MA 5 mM
Protocol: Western blotting. Protein lysates were separated by SDS-PAGE and then transferred to a nitrocellulose membrane. After blocking, membranes were incubated overnight with antibodies to LC3 (rabbit Monoclonal antibody, Cell Signaling). After washing with TBS-T (TBS with 0.05 Tween-20), membranes were incubated with the HRP (Horseradish peroxidase)-linked secondary antibody (IgG donkey anti-rabbit IgG (NA934) (GE LifeSciences, Marlborough, MA). Blots were developed using ECL prime (GE LifeSciences, RPN2232) and digitally captured on an LAS4000 (GE LifeSciences). After stripping, the membrane was re-probed with a mouse monoclonal antibody to GAPDH (Santa Cruz) followed by a secondary IgG sheep anti-mouse IgG (NA931). Western blot bands were quantified using Fiji (Schindelin et al., 2012).

HT-29 cells = experiment: HT-29 cell proliferation (3H-thymidine incorporation); type: cell-based, human; conditions: co-treatment with autophagy inhibitor, 72 hours
Protocol: Cell proliferation was measured by ^3H-Thymidine incorporation. Briefly, 0.5 μCi ^3H-Thymidine (Perkin Elmer, Waltham, MA; NET027WW001MC) was added to cells in 200 μL of culture media in a 96 well plate for 8-18 hours. Plates were frozen to stop cell growth, cells harvested onto glass fiber filters (Perkin Elmer, 1450-421) dried by microwave, wet with FiltronX liquid scintillation fluid (National Diagnostics, Atlanta, GA; LS-201) and incorporated radioactivity counted in a liquid scintillation counter (Perkin Elmer, MicroBeta-1450 or MicroBeta-2450). […] All lines were used for a maximum number of 10-15 passages over ˜4 years. All cell lines tested negative for mycoplasma (yearly) and MTBM (Molecular Testing of Biological Materials; tested once).

EphB2 = EphB2 (Homo sapiens (Human), UniProt P29323); experiment: Endogenous EphB2 tyrosine phosphorylation by ELISA in Colo-205 cell lysates; type: cell-based; conditions: for reduction of EphB2 phosphorylation: at 2 μM
EphB2, sequence (P29323 19-1055): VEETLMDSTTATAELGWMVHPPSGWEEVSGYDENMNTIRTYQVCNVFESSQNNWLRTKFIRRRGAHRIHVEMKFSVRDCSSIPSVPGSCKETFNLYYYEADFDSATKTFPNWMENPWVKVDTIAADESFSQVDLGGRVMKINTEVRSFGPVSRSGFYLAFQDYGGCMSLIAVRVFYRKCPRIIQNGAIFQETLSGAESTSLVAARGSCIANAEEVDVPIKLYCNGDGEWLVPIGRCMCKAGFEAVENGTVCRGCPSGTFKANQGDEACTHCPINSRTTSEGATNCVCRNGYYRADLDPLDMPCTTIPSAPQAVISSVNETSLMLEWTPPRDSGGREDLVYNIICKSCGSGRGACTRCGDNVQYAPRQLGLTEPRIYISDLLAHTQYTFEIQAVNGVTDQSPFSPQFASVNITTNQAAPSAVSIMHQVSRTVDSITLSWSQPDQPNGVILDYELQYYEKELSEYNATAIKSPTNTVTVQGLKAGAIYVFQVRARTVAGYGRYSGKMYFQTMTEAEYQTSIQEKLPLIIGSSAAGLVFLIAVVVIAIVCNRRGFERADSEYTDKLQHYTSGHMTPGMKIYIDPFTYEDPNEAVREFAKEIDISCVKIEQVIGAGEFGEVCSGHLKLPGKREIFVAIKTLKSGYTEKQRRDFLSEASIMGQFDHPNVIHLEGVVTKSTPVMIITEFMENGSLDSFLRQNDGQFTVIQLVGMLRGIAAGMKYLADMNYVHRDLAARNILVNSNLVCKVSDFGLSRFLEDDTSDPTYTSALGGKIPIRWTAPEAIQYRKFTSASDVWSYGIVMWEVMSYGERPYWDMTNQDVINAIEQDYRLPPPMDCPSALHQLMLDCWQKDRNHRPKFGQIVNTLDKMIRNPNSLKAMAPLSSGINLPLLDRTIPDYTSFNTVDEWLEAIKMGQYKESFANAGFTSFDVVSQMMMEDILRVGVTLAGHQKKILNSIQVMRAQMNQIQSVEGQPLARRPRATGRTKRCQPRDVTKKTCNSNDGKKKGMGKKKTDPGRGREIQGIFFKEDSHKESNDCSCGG
Protocol: (§1) ELISA. ELISA plates (ThermoFisher Scientific, Immulon 4HBX, 3855) were coated overnight at 4° C. with capture antibody 75 ng/well in PBS, and blocked with 5% BSA (Sigma-Aldrich, St. Louis, MO) in PBS for two hours at room temperature. Capture antibodies for EphB4 was goat polyclonal antibody (R&D Systems AF3038); for EphA2 was goat polyclonal antibody (R&D Systems AF3035); 10 ug of cell lysate was applied to the ELISA well for two hours at room temperature. The amount of tyrosine phosphorylation was measured with pTyr-HRP antibody (R&D Systems, HAM1676). The ELISA was developed with 3,3′,5,5′-Tetramethylbenzidine (TMB) (ThermoFisher Scientific, 7588927) for 15 minutes and stopped with 1M H2SO4 (Sigma-Aldrich, 258105). Absorbance at 450 nm was measured using POLARstar Optima plate reader (BMG Labtech, Cary, NC). All conditions were tested in duplicate. pEphB2 was measured by ELISA (Ray Biotech, PEL-EphB2-Y) according to the manufacturer's recommendations.

EphB4 = EphB4 (Homo sapiens (Human), UniProt P54760); experiment: Endogenous EphB4 tyrosine phosphorylation by ELISA in HT29 cell lysates; type: cell-based; conditions: for reduction of EphB4 phosphorylation: at 2 μM
EphB4, sequence (P54760 16-987): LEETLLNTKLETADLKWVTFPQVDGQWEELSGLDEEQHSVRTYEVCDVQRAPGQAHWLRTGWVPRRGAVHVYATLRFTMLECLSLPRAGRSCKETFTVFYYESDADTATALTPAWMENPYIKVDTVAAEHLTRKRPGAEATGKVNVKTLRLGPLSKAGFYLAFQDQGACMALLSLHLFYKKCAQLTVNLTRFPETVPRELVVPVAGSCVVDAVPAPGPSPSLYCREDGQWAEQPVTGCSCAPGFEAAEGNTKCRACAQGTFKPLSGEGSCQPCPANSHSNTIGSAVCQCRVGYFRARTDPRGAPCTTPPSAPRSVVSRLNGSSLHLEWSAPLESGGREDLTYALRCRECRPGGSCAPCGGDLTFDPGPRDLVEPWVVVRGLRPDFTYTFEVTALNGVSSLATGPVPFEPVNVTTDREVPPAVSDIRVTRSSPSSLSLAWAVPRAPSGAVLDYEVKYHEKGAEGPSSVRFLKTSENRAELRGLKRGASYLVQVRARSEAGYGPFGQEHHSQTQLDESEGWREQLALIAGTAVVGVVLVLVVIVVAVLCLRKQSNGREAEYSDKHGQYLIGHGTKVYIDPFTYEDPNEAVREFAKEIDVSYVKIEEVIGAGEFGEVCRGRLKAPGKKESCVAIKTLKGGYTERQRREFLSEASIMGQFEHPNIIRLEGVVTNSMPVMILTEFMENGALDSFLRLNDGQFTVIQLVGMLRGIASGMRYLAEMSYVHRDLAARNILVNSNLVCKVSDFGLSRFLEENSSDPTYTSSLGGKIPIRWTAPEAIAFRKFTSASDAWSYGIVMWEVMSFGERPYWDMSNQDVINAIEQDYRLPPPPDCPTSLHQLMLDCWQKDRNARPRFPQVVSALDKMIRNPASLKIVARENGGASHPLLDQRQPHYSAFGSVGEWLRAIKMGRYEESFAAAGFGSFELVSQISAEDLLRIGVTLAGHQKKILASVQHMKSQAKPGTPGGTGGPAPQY
Protocol: as §1

EphA2 [5] = molecular target: T1, EphA2; experiment: Endogenous EphA2 tyrosine phosphorylation by ELISA in RKO cell lysates; type: cell-based; conditions: for reduction of EphA2 phosphorylation: at 2 μM
Protocol: as §1

SW620 = experiment: Cell cycle analysis by flow cytometry in colorectal cancer cells (SW620); type: cell-based, human; conditions: 72 hours; compared to control and NVP/NVP-Iso
Protocol: Cell cycle was assessed by flow cytometry. Adherent cells were harvested, washed with PBS and fixed for 30 minutes in cold 70% ethanol at 4° C. Cells were washed twice with PBS, treated with 2.5 μg/mL RNaseA (ThermoFisher, 12091039) for 30 minutes at room temperature, and then stained with 10 μg propidium iodide for 15 minutes prior to analysis performed on FACS Canton (BD Biosciences; San Jose, CA) and cell cycled analyzed (FloJo software).

SW620 cells = experiment: Cleaved caspase-3 immunofluorescence microscopy in colorectal cancer cells (SW620); type: cell-based, human; conditions: 72 hours
Protocol: Cell viability was also measured by detection of cell-associated cleaved caspase-3. Cells were grown on gelatin-coated glass chamber slides, fixed in 4% paraformaldehyde, immune-stained with rabbit monoclonal antibody to cleaved Caspase 3 (1:100 Cell Signaling Technology) followed by Alexa Fluor 488-conjugated anti-rabbit IgG (1:400 Invitrogen) and mounted with Vectastain containing DAPI (Vector Laboratories). The slides were imaged through a Zeiss LSM780 confocal microscope. Image quantification (cleaved Caspase-3^+ nucleiltotal nuclei) was performed by CellProfiler software.

HUVEC = HUVEC proliferation (specificity control); type: cell-based, human; conditions: 125-2000 nM
MG63 = MG63 proliferation (specificity control); type: cell-based, human; conditions: 125-2000 nM

## Cc1ccc(C(=O)Nc2cccc(C(F)(F)F)c2)cc1Nc1nc(-c2cccnc2)nc2c1cnn2C [NVP, NVP-BHG712]
[1]
  reduction of proliferation: > 50%

## Cc1ccc(C(=O)Nc2cccc(C(F)(F)F)c2)cc1Nc1nc(-c2cccnc2)nc2ccccc12 [@4, 4-Methyl-3-((2-(pyridin-3-yl)quinazolin-4-yl)amino)-N-(3-(trifluoromethyl)phenyl)benzamide]
EphA2 [2]
  Kd: 86 nM

## Cc1cc(C(=O)Nc2cccc(C(F)(F)F)c2)ccc1Nc1nc(N2CC[C@H](O)C2)nc(-n2ccnc2)n1 [@12]
EphA2 [2]
  Kd: 132 nM

## Fc1ccc(CNc2ncnc3ccc(F)cc23)cc1 [Spautin, spautin-1]
LC3; spautin 4-hour pretreatment
  LC3-related puncta/cell increased by NVP and NVP-Iso: reduces this drug-effect
LC3B [3]
  LC3B accumulation in cells treated with 1 μM NVP or NVP-Iso: reduced accumulation of LC3B
LC3B [4]
  LC3B accumulation induced by NVP and NVP-Iso in SW620 cells: reduces this LC3B accumulation
HT-29 cells
  anti-proliferative effects of NVP and NVP-Iso in colorectal cancer cells: mitigated the anti-proliferative

## Cc1ccc(C(=O)Nc2cccc(C(F)(F)F)c2)cc1Nc1nc(-c2cnccn2)nc2nn(C)cc12 [@2, 4-Methyl-3-((2-methyl-6-(pyrazin-2-yl)-2H-pyrazolo[3,4-d]pyrimidin-4-yl)amino)-N-(3-(trifluoromethyl)-phenyl)benzamide]
EphA2 [2]; compared with @1 and @3
  fold lower binding affinity towards EphA2: 44 fold
EphA2 [2]
  Kd: 132 nM

## Cn1cnc(N)c2ncnc1-2 [3-Methyladenine]
LC3B [3]
  LC3B accumulation in cells treated with 1 μM NVP or NVP-Iso: reduced accumulation of LC3B
LC3B [4]
  LC3B accumulation induced by NVP and NVP-Iso in SW620 cells: reduces this LC3B accumulation
HT-29 cells
  anti-proliferative effects of NVP and NVP-Iso in colorectal cancer cells: mitigated the anti-proliferative

## CCN(CC)CCCC(C)Nc1ccnc2cc(Cl)ccc12 (centres unmarked) [chloroquine, Chloroquine]
LC3B [3]
  LC3B accumulation in cells treated with 1 μM NVP or NVP-Iso: enhanced the accumulation of LC3B

## Cc1cc(C(=O)Nc2cccc(C(F)(F)F)c2)ccc1Nc1nc(N2CCNCC2)nc(-n2ccnc2)n1 [@11]
EphA2 [2]
  Kd: 443 nM

## Cc1ccc(C(=O)Nc2cccc(C(F)(F)F)c2)cc1Nc1nc(-c2cccnc2)nc2ncccc12 [@5, 4-Methyl-3-((2-(pyridin-3-yl)pyrido[2,3-d]pyrimidin-4-yl)amino)-N-(3-(trifluoromethyl)phenyl)benzamide]
EphB2
  reduction of EphB2 phosphorylation: marginal reduction
EphB4
  reduction of EphB4 phosphorylation: marginal reduction
EphA2 [5]
  reduction of EphA2 phosphorylation: marginal reduction
EphA2 [2]
  Kd: 225 nM

## Cc1ccc(C(=O)Nc2cccc(Cl)c2)cc1Nc1nc(N2CC[C@H](O)C2)nc(-n2ccnc2)n1 [@13, (S)-N-(3-chlorophenyl)-3-((4-(3-hydroxypyrrolidin-1-yl)-6-(1H-imidazol-1-yl)-1,3,5-triazin-2-yl)amino)-4-methylbenzamide]
EphA2 [2]
  Kd: 97 nM

## Cc1ccc(C(=O)Nc2cccc(C(F)(F)F)c2)cc1Nc1nc(-c2cccnc2)nc(-c2cccnc2)n1 [@6, 3-((4,6-Di(pyridin-3-yl)-1,3,5-triazin-2-yl)amino)-4-methyl-N-(3-(trifluoromethyl)phenyl)benzamide]
EphA2 [2]
  Kd: 24 nM

## Cc1cc(C(=O)Nc2cccc(C(F)(F)F)c2)ccc1Nc1nc(N2CCCC2)nc(-n2ccnc2)n1 [@9]
EphA2 [2]
  Kd: 34 nM

## Cc1ccc(C(=O)Nc2cccc(C(F)(F)F)c2)cc1Nc1nc(-c2cncnc2)nc2c1cnn2C [@3, 4-Methyl-3-((1-methyl-6-(pyrimidin-5-yl)-1H-pyrazolo[3,4-d]pyrimidin-4-yl)amino)-N-(3-(trifluoromethyl)phenyl)benzamide]
EphB2; four hours treatment
  inhibitory activity for p-EphB2 compared to NVP: comparable or only slightly reduced inhibitory activity
EphB4; four hours treatment
  inhibitory activity for p-EphB4 compared to NVP: comparable or only slightly reduced inhibitory activity
LC3B [3]; 72-hour incubation
  induction of autophagosome marker LC3B (immunoblotting): failure
EphA2 [5]; four hours treatment
  inhibitory activity for p-EphA2 compared to NVP: comparable or only slightly reduced inhibitory activity
SW620
  distribution of cells within the cell cycle: marked reduction of the proportion of cells within the G2M phase
SW620 cells
  cleaved caspase-3 detection in treated cells: only in a minority of cells

## Cc1cc(C(=O)Nc2cccc(C(F)(F)F)c2)ccc1Nc1nc(-c2cnccn2)nc2nn(C)cc12 [@7]
EphA2 [2]
  Kd: ~2880 nM

## Cc1ccc(C(=O)Nc2cccc(C(F)(F)F)c2)cc1Nc1nc(N2CCOCC2)nc(-n2ccnc2)n1 [@10, 3-((4-(1H-imidazol-1-yl)-6-morpholino-1,3,5-triazin-2-yl)amino)-4-methyl-N-(3-(trifluoromethyl)phenyl)benzamide]
LC3; 72 hours
  LC3-related autophagy puncta: also induced LC3B-related puncta
EphB2
  reduction of EphB2 phosphorylation: marginal reduction
EphB4
  reduction of EphB4 phosphorylation: marginal reduction
EphA2 [5]
  reduction of EphA2 phosphorylation: marginal reduction
HUVEC
  reduction of HUVECs proliferation: moderately inhibitory
MG63
  reduction of MG63 cell proliferation: moderately inhibitory
EphA2 [2]
  Kd: 191 nM
